{"source": "patent US20190022092A1", "about": "“Therapeutic Combinations of a BTK Inhibitor and a GITR Binding Molecule, a 4-1BB Agonist, or an OX40 Agonist” (Acerta Pharma B.V., priority 2015, published 2019)", "key": {"[1]": {"tested_on": "GPVI platelet aggregation", "assay": "GPVI platelet aggregation studies", "assay_type": "cell-based", "conditions": "read-out: IC50, GPVI platelet aggregation"}, "[2]": {"tested_on": "CD8+ T cells", "assay": "CD8+ T cell viability on anti-TCR/anti-CD28 coated wells", "assay_type": "cell-based", "conditions": "4 days, neutral culture conditions", "experimental": "Total T cells were plated on anti-TCR and anti-CD28 coated wells in the presence of both BTK inhibitors. Neutral culture conditions were used that will not polarize T cells to a helper lineage. […] Statistical significance was calculated using the Mann Whitney T-test."}, "[3]": {"tested_on": "CD8+ T cell function (B lymphoblast targets)", "assay": "Cytotoxic T cell (CTL) assay", "assay_type": "cell-based", "conditions": "CTL generated 4 days with 500 nM inhibitor", "experimental": "Without being bound by any theory, CD8^+ T cells have two primary effector functions: (1) produce large amounts of IFN-γ (which activates macrophages), and (2) cytolytic activity. […] The targets were B lymphoblasts from lipopolysaccharide (LPS) treated cultures. The assay was performed by incubating different ratios of effectors:targets for 4 hours."}, "[4]": {"tested_on": "Raji cell line", "assay": "Antibody-dependent NK cell-mediated cytotoxicity, chromium release, Raji cell line", "assay_type": "cell-based", "conditions": "1 μM, 4 hours, variable rituximab, effector:target 25:1"}, "[5]": {"tested_on": "CD8+ T cell", "assay": "IFN-γ level measurements for CD8+ T cell function", "assay_type": "cell-based", "conditions": "relative to vehicle", "text": "FIG. 39 illustrates the results of IFN-γ level measurements for CD8^+ T cell function."}, "[6]": {"tested_on": "Th17 and Treg cells", "assay": "Th17 and Treg development of CD4+ T cells under skewing cytokines", "assay_type": "cell-based", "experimental": "Enriched CD4^+ T cells are plated on 24-well culture dishes that have been precoated 2 hr with 250 μL anti-TCRβ (0.5 μg/mL) plus anti-CD28 (5 μg/mL) at 37° C. in PBS. The cells are then supplemented with media containing BTK inhibitors along with the skewing cytokines as indicated in the following. The Th17 and Treg cultures are grown for 4 days before analysis. The cells are maintained for an additional 3 days with skewing cytokines (Th17; 20 ng/mL IL-6, 0.5 ng/mL TGF-β, 5 μg/mL IL-4, 5 μg/mL IFN-γ and Treg; 0.5 ng/mL TGF-β, 5 μg/mL IL-4, 5 μg/mL IFN-γ) and are supplemented with IL2 as a growth factor."}, "[7]": {"tested_on": "CD8+ T cell", "assay": "Cytotoxicity assay for CD8+ T cell function", "assay_type": "cell-based", "conditions": "relative to vehicle", "text": "FIG. 38 illustrates the results of the cytotoxicity assay for CD8^+ T cell function."}, "[8]": {"tested_on": "NK cell lysis of Raji cells", "assay": "Rituximab ADCC 51Cr release assay, Raji targets", "assay_type": "cell-based, human", "text": "Cell culture conditions were as follows. […] The HER18 cells were maintained in DEM supplemented with fetal bovine serum, penicillin-streptomycin and. Prior to assay, HER18 cells were harvested using trypsin-EDTA, washed with phosphate-buffered saline (PBS) containing 5% serum and viable cells were counted. For culture of primary target cells, peripheral blood from CLL patients was subject to density centrifugation to obtain peripheral blood mononuclear cells (PBMC). Cell preparations were washed and then subject to positive selection of CD5^+CD19^+ CLL cells using magnetic beads (MACS, Miltenyi Biotech). Cell preparations were used fresh after selection. NK cells from CLL patients and healthy volunteers were enriched from peripheral blood collected in sodium citrate anticoagulant tubes and then subject to density centrifugation. Removal of non NK cells was performed using negative selection by MACS separation. Freshly isolated NK cells were washed three times, enumerated, and then used immediately for ADCC assays.\nADCC assays were performed as follows. Briefly, target cells (Raji or primary CLL) were labeled by incubation at 37° C. with 100 μCi ^51Cr for 4 hours prior to co-culture with NK cells. Cells were washed, enumerated, and then added in triplicate to prepared 96-well plates containing treated NK cells at an effector:target (E:T) ratio of 25:1. […] Cultures were incubated at 37° C. for 4 hours, and then centrifuged. Supernatants were harvested and ^51Cr release was measured by liquid scintillation counting. All experiments were performed in triplicate."}, "[9]": {"tested_on": "hematologic malignancies", "conditions": "cited from earlier work"}, "[10]": {"tested_on": "GPVI platelet aggregation", "assay": "GPVI (convulxin-induced) platelet aggregation", "assay_type": "cell-based", "conditions": "human platelets", "experimental": "In FIG. 67, the results of CVX-induced (250 ng/mL) human platelet aggregation results before and 15 minutes after administration of the BTK inhibitors to 6 healthy individuals are shown."}, "[11]": {"tested_on": "human platelet-mediated thrombosis", "conditions": "VWF HA1, mouse (infused with human platelets), in vivo, 2 min", "experimental": "Injury to the vessel wall of arterioles ([…] diameter) was performed using a pulsed nitrogen dye laser (440 nm, Photonic Instruments) applied through a 20× water-immersion Olympus objective (LUMPlanF1, 0.5 numerical aperture (NA)) of a Zeiss Axiotech vario microscope. […] The extent of thrombus formation was assessed for 2 minutes after injury and the area (μm^2) of coverage determined (Image IQ, Andor Technology).\nThe BTK inhibitor-treated human platelets were fluorescently labeled and infused continuously through a catheter inserted into the femoral artery."}, "[12]": {"tested_on": "peripheral blood B cell", "conditions": "doses from 0.001-100 mg/kg, two experiments; cited from earlier work"}}, "data": [{"compound": "C=CC(=O)N1CCC[C@@H](n2nc(-c3ccc(Oc4ccccc4)cc3)c3c(N)ncnc32)C1", "note": "[Formula (10), 1-[(3R)-3-[4-amino-3-(4-phenoxyphenyl)-1H-pyrazolo[3,4-d]pyrimidin-1-yl]piperidin-1-yl]prop-2-en-1-one, reference compound]", "values": [{"measurement": "IC50", "setting": "[1]", "result": 130, "unit": "nM"}, {"measurement": "CD8+ T cell viability", "setting": "[2]", "result": "strong, negative effect"}, {"measurement": "CD8+ T cell function as % cytotoxicity", "setting": "[3]", "result": "affects CD8^+ T cell function"}, {"measurement": "CD8+ T cell function as IFN-γ levels", "setting": "[3]", "result": "significant loss of function"}, {"measurement": "antibody-dependent NK cell-mediated cytotoxicity (percent lysis)", "setting": "[4]", "result": "antagonizes antibody-dependent NK cell-mediated cytotoxicity"}, {"measurement": "CD8+ T cell function as IFN-γ level", "setting": "[5]", "result": "affects CD8^+ T cell function as measured by IFN-γ level"}, {"measurement": "Th17 development", "setting": "[6]", "result": "profound inhibition"}, {"measurement": "Treg development", "setting": "[6]", "result": "increase"}, {"measurement": "CD8+ T cell function as % cytotoxicity", "setting": "[7]", "result": "affects CD8^+ T cell function as measured by % cytotoxicity"}, {"measurement": "effect on rituximab-mediated ADCC, Raji cells", "setting": "[8]; 1 μM, NK cells, E:T 25:1", "result": "strongly inhibited"}, {"measurement": "antitumor activity", "setting": "[9]; subjects with heavily pretreated non-Hodgkin lymphoma", "result": "substantial antitumor activity"}, {"measurement": "maximum tolerated dose (MTD)", "setting": "[9]; within the tested dose range (through 840 mg)", "result": "No maximum tolerated dose (MTD) was apparent"}, {"measurement": "GPVI platelet aggregation", "setting": "[10]", "result": "significantly inhibits"}]}, {"compound": "C=CC(=O)Nc1cccc(Nc2nc(Nc3ccc(OCCOC)cc3)ncc2F)c1", "note": "[Formula (17), N-(3-((5-fluoro-2-((4-(2-methoxyethoxy)phenyl)amino)pyrimidin-4-yl)amino)phenyl)acrylamide, reference compound]", "values": [{"measurement": "effect on human platelet-mediated thrombus formation", "setting": "[11]", "result": "effect similar to Formula (10) (ibrutinib)"}]}, {"compound": "PF-05082566: 4-1BB agonist monoclonal antibody from Pfizer; heavy chain SEQ ID NO:435, light chain SEQ ID NO:436", "values": [{"measurement": "peripheral blood B cell numbers", "setting": "[12]", "result": "either unchanged or decreased"}]}, {"compound": "rituximab: anti-CD20 antibody (Genentech)", "values": [{"measurement": "increase in cell lysis over natural cytotoxicity", "setting": "[8]; rituximab 0.1 and 1 μg/mL, healthy donor NK cells, Raji cells", "result": "5- to 8 fold"}]}]}
